According to paper PMC4052943 (BioMed Research International, 2014):
Read-outs that look alike come from different tables or passages of the source.

Key:
[1] = test system: BP-induced DNA adducts (rat liver microsomes, st-DNA); test: Microsomal BP-DNA adducts, 32P-postlabeling; type: biochemical; details: for BP-induced DNA adducts: BP 1 μM, rat liver microsomes, st-DNA
Method: st-DNA (300 μg/mL) was preincubated with 50 mM Tris-HCl (pH 7.5), 1 mM MgCl2, 2.5 mM glucose-6-phosphate, 1 U/mL G6PDH, 0.5 mM NADP+, and α-naphthoflavone-induced rat liver microsomal proteins (1 mg/mL) in 1 mL for 10 min, in the presence of vehicle alone and PC and EA at 20 and 40 μM. […] The incubation was continued for another 30 min at 37°C and then reaction was terminated by the addition of EDTA and centrifugation (9,000 g; 10 min). DNA was isolated from the supernatant by removal of RNA and proteins by digestions with RNases A and T1 and proteinase K and a series of extractions with phenol, phenol: Sevag (chloroform : isoamyl alcohol, 24 : 1), and Sevag, followed by precipitation of the DNA with ethanol. The DNA concentration was estimated spectrophotometrically.
DNA adducts were analyzed by ^32P-postlabeling as described earlier. Briefly, 10 μg of DNA was digested with micrococcal nuclease and spleen phosphodiesterase (MN/SPD). Before further treatment with nuclease P1 to enrich DNA adducts, an aliquot was removed for evaluation of normal nucleotide levels. DNA adducts and normal nucleotides were labelled with [γ-^32P]ATP and T4 polynucleotide kinase. Labelled adducts were separated by multidirectional polyethyleneimine (PEI)-cellulose TLC using the following solvents: D1, 1.0 M sodium phosphate, pH 6.0; D3, 4 M lithium formate/7 M urea, pH 3.5; D4, 4 M ammonium hydroxide/isopropanol (1 : 0.9); and D5, 1.7 M sodium phosphate, pH 6.0. Normal nucleotides were resolved in 180 mM sodium phosphate, pH 6.0, by one-directional PEI-cellulose TLC. DNA adducts and normal nucleotides were detected and quantified by Packard InstantImager.

A549 cells = test: MTT cell proliferation assay; type: cell-based; details: Homo sapiens, A549, 48 h, read-out: inhibition of cells (antiproliferative activity, MTT)
Method: (§1) Inhibition of cell proliferation by PC and EA was measured with the MTT assay. Human lung cancer A549 and H1299 cells were obtained from ATCC (Manassas, VA, USA) and maintained in DMEM supplemented with 10% fetal calf serum (FCS), 1% penicillin/streptomycin. Cells were plated in 96-well culture plates (5 × 10^3 cells/well). After 24 h incubation, cells were treated with vehicle alone (0.1% DMSO) and PC and EA (12.5–200 μg/mL) extracts for 48 h. Then, the culture medium was replaced by 100 μL of fresh medium containing 0.5 mg/mL MTT, and the plates were incubated for 2 h at 37°C. The medium was then removed and was replaced by 200 μL of DMSO to solubilize the converted purple dye. The absorbance was measured with a spectrophotometer microplate reader at a wavelength of 570 nm.

H1299 cells = test: MTT cell proliferation assay; type: cell-based; details: Homo sapiens, NCI-H1299, 48 h, read-out: inhibition of cells (antiproliferative activity, MTT)
Method: as §1

[2] = test system: Salmonella typhimurium TA100; test: Ames antimutagenicity assay (preincubation); details: for inhibition at 50 µM / inhibition at 100 µM / inhibition at 250 µM / inhibition at 500 µM: Salmonella enterica, TYPHIMURIUM;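 on all read-outs here: compound and mutagen preincubated together 30 min at 37°C before bacteria added, then plates incubated 48 h at 37°C, inhibition relative to mutagen-alone revertants after subtracting the negative control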
Method: (§2) In the preincubation experiment, test compounds and mutagen, each having a volume of 0.1 mL of varying concentrations, were preincubated at 37°C for 30 min and then 0.1 mL of 1 × 10^7 CFU/mL density of the bacterial culture was added, followed by the addition of 2.5 mL of top agar at 45°C (containing 0.5% NaCl and 0.6% agar) supplemented with 0.5 mM histidine-biotin. […] The combined solutions were vortexed and poured onto minimal glucose plates (40% glucose solution and Vogel Bonner medium). The plates were incubated at 37°C for 48 h and the numbers of histidine-independent revertants colonies were scored.
(§3) Survival of the bacteria was routinely monitored for each experiment. Parallel controls were run with compounds alone at all concentrations to test the possible toxicity. The concentrations of the test samples for investigating the antimutagenicity were 50, 100, 200, and 500 μM. […] All the test samples and mutagens were dissolved in DMSO (final conc., 0.01%). […] Plates were set up in triplicate for each concentration and the entire experiment was repeated three times. Inhibition of mutagenicity was expressed as percentage decrease of reverse mutation and calculated as (1) Percent inhibition=[(a−b)/(a−c)]×100, where a = number of histidine revertants induced by mutagen, b = number of histidine revertants induced by mutagen in the presence of test compound, and c = number of revertants induced in negative control.

[3] = test system: Salmonella typhimurium TA102; test: Ames antimutagenicity assay (preincubation); details: for inhibition at 50 µM / inhibition at 100 µM / inhibition at 250 µM / inhibition at 500 µM: Salmonella enterica, TYPHIMURIUM;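 on all read-outs here: compound and mutagen preincubated 30 min at 37 °C before adding bacteria, His+ revertant colonies counted after 48 h at 37 °C, inhibition relative to mutagen-alone minus negative-control revertants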
Method: as §2, §3

In the case of O=C1O[C@H]2[C@@H]3OC(=O)c4cc(O)c(O)c(O)c4-c4c(O)c(O)c5oc(=O)c6c(c(O)c(O)c7oc(=O)c4c5c76)-c4c(cc(O)c(O)c4O)C(=O)OC[C@H]3OC(O)[C@@H]2OC(=O)c2cc(O)c(O)c(O)c2-c2c1cc(O)c(O)c2O (mixture of isomers) [Punicalagin], the “BP-induced DNA adducts” value ([1]; 20 μM test compound) is reported as 42.9 ± 16 DNA adducts/10^8 nucleotides, the “BP-induced DNA adducts” value ([1]; 40 μM test compound) is reported as 7.2 ± 6.1 DNA adducts/10^8 nucleotides and the “inhibition of BP-induced DNA adducts” value ([1]; 40 μM, BP with rat liver microsomes, cofactors, DNA) is reported as 97%. It also gave an inhibition at 50 µg/mL (A549 cells) of 34%, an inhibition at 50 µg/mL (H1299 cells) of 57% and an inhibition at 50 µM ([2]; read-out: % inhibition of mutagenicity, TA 100, 50 μM + 2AF, S9) of 22.4%. It also gave an inhibition at 50 µM ([2]; read-out: % inhibition of mutagenicity, TA 100, 50 μM + BP, S9) of 30.6%, an inhibition at 50 µM ([2]; read-out: % inhibition of mutagenicity, TA 100, 50 μM + MMS, no S9) of 13.8% and an inhibition at 50 µM ([2]; read-out: % inhibition of mutagenicity, TA 100, 50 μM + NaN3, no S9) of 11.3%. The inhibition at 100 µM ([2]; read-out: % inhibition of mutagenicity, TA 100, 100 μM + 2AF, S9) was 43.8%, the inhibition at 100 µM ([2]; read-out: % inhibition of mutagenicity, TA 100, 100 μM + BP, S9) was 48.3% and the inhibition at 100 µM ([2]; read-out: % inhibition of mutagenicity, TA 100, 100 μM + MMS, no S9) was 30.8%. It also gave an inhibition at 100 µM ([2]; read-out: % inhibition of mutagenicity, TA 100, 100 μM + NaN3, no S9) of 33.1%, an inhibition at 250 µM ([2]; read-out: % inhibition of mutagenicity, TA 100, 250 μM + BP, S9) of 64% and an inhibition at 250 µM ([2]; read-out: % inhibition of mutagenicity, TA 100, 250 μM + MMS, no S9) of 45.3%. It also gave an inhibition at 250 µM ([2]; read-out: % inhibition of mutagenicity, TA 100, 250 μM + NaN3, no S9) of 54.6%, an inhibition at 500 µM ([2]; read-out: % inhibition of mutagenicity, TA 100, 500 μM + 2AF, S9) of 83.1% and an inhibition at 500 µM ([2]; read-out: % inhibition of mutagenicity, TA 100, 500 μM + BP, S9) of 84.5%. For the same compound, the inhibition at 500 µM ([2]; read-out: % inhibition of mutagenicity, TA 100, 500 μM + MMS, no S9) was 66%, the inhibition at 500 µM ([2]; read-out: % inhibition of mutagenicity, TA 100, 500 μM + NaN3, no S9) was 74.3% and the “Number of His+ revertants colonies/plate” value ([2]; TA 100, 50 μM + 2AF, S9) was 426.7 ± 28.3 colonies/plate. For the same compound, the “Number of His+ revertants colonies/plate” value ([2]; TA 100, 50 μM + BP, S9) was 530.3 ± 26.4 colonies/plate, the “Number of His+ revertants colonies/plate” value ([2]; TA 100, 50 μM + MMS, no S9) was 856.3 ± 13.1 colonies/plate and the “Number of His+ revertants colonies/plate” value ([2]; TA 100, 50 μM + NaN3, no S9) was 342.0 ± 4.7 colonies/plate. For the same compound, the “Number of His+ revertants colonies/plate” value ([2]; TA 100, 100 μM + 2AF, S9) was 358.0 ± 12.2 colonies/plate, the “Number of His+ revertants colonies/plate” value ([2]; TA 100, 100 μM + BP, S9) was 442.7 ± 31.4 colonies/plate and the “Number of His+ revertants colonies/plate” value ([2]; TA 100, 100 μM + MMS, no S9) was 722.0 ± 15.0 colonies/plate. The “Number of His+ revertants colonies/plate” value ([2]; TA 100, 100 μM + NaN3, no S9) was 301.7 ± 7.8 colonies/plate, the “Number of His+ revertants colonies/plate” value ([2]; TA 100, 250 μM + BP, S9) was 366.0 ± 20.2 colonies/plate and the “Number of His+ revertants colonies/plate” value ([2]; TA 100, 250 μM + MMS, no S9) was 601.3 ± 12.3 colonies/plate. The “Number of His+ revertants colonies/plate” value ([2]; TA 100, 250 μM + NaN3, no S9) was 254.3 ± 10.8 colonies/plate, the “Number of His+ revertants colonies/plate” value ([2]; TA 100, 500 μM + 2AF, S9) was 245.0 ± 9.6 colonies/plate and the “Number of His+ revertants colonies/plate” value ([2]; TA 100, 500 μM + BP, S9) was 270.7 ± 15.6 colonies/plate. For the same compound, the “Number of His+ revertants colonies/plate” value ([2]; TA 100, 500 μM + MMS, no S9) was 451.7 ± 15.6 colonies/plate, the “Number of His+ revertants colonies/plate” value ([2]; TA 100, 500 μM + NaN3, no S9) was 232.3 ± 9.4 colonies/plate and the inhibition at 50 µM ([3]; read-out: % inhibition of mutagenicity, TA 102, 50 μM + 2AF, S9) was 38.7%. For the same compound, the inhibition at 50 µM ([3]; read-out: % inhibition of mutagenicity, TA 102, 50 μM + BP, S9) was 15.8%, the inhibition at 50 µM ([3]; read-out: % inhibition of mutagenicity, TA 102, 50 μM + MMS, no S9) was 17.5% and the inhibition at 50 µM ([3]; read-out: % inhibition of mutagenicity, TA 102, 50 μM + NaN3, no S9) was 18%. The inhibition at 100 µM ([3]; read-out: % inhibition of mutagenicity, TA 102, 100 μM + 2AF, S9) was 54.8%, the inhibition at 100 µM ([3]; read-out: % inhibition of mutagenicity, TA 102, 100 μM + BP, S9) was 28% and the inhibition at 100 µM ([3]; read-out: % inhibition of mutagenicity, TA 102, 100 μM + MMS, no S9) was 30.8%. For the same compound, the inhibition at 100 µM ([3]; read-out: % inhibition of mutagenicity, TA 102, 100 μM + NaN3, no S9) was 17.6%, the inhibition at 250 µM ([3]; read-out: % inhibition of mutagenicity, TA 102, 250 μM + BP, S9) was 58.6% and the inhibition at 250 µM ([3]; read-out: % inhibition of mutagenicity, TA 102, 250 μM + MMS, no S9) was 50.8%. The inhibition at 250 µM ([3]; read-out: % inhibition of mutagenicity, TA 102, 250 μM + NaN3, no S9) was 42.2%, the inhibition at 500 µM ([3]; read-out: % inhibition of mutagenicity, TA 102, 500 μM + 2AF, S9) was 81.6% and the inhibition at 500 µM ([3]; read-out: % inhibition of mutagenicity, TA 102, 500 μM + BP, S9) was 76.2%. The inhibition at 500 µM ([3]; read-out: % inhibition of mutagenicity, TA 102, 500 μM + MMS, no S9) was 74.1%, the inhibition at 500 µM ([3]; read-out: % inhibition of mutagenicity, TA 102, 500 μM + NaN3, no S9) was 59.8% and the “Number of His+ revertants colonies/plate” value ([3]; TA 102, 50 μM + 2AF, S9) was 1028.0 ± 21.8 colonies/plate. The “Number of His+ revertants colonies/plate” value ([3]; TA 102, 50 μM + BP, S9) was 635.0 ± 23.0 colonies/plate, the “Number of His+ revertants colonies/plate” value ([3]; TA 102, 50 μM + MMS, no S9) was 1072.0 ± 10.7 colonies/plate and the “Number of His+ revertants colonies/plate” value ([3]; TA 102, 50 μM + NaN3, no S9) was 346.3 ± 23.5 colonies/plate. The “Number of His+ revertants colonies/plate” value ([3]; TA 102, 100 μM + 2AF, S9) was 854.0 ± 31.6 colonies/plate, the “Number of His+ revertants colonies/plate” value ([3]; TA 102, 100 μM + BP, S9) was 595.0 ± 28.8 colonies/plate and the “Number of His+ revertants colonies/plate” value ([3]; TA 102, 100 μM + MMS, no S9) was 942.0 ± 16.2 colonies/plate. The “Number of His+ revertants colonies/plate” value ([3]; TA 102, 100 μM + NaN3, no S9) was 341.0 ± 19.1 colonies/plate, the “Number of His+ revertants colonies/plate” value ([3]; TA 102, 250 μM + BP, S9) was 496.0 ± 17.4 colonies/plate and the “Number of His+ revertants colonies/plate” value ([3]; TA 102, 250 μM + MMS, no S9) was 738.0 ± 14.8 colonies/plate. For the same compound, the “Number of His+ revertants colonies/plate” value ([3]; TA 102, 250 μM + NaN3, no S9) was 310.7 ± 16.0 colonies/plate, the “Number of His+ revertants colonies/plate” value ([3]; TA 102, 500 μM + 2AF, S9) was 563.0 ± 29.4 colonies/plate and the “Number of His+ revertants colonies/plate” value ([3]; TA 102, 500 μM + BP, S9) was 438.0 ± 19.5 colonies/plate. For the same compound, the “Number of His+ revertants colonies/plate” value ([3]; TA 102, 500 μM + MMS, no S9) was 509.0 ± 19.7 colonies/plate.
